Assay results from PMC12286339 (PLOS One, 2025).
Several values for one entry are separate records, joined by “and”; a condition that tells them apart may be missing. Equal entries are not always repeated.

Legend:
[1] = in vivo; cited from earlier work
[2] = Pharmacokinetics in blood of C57BL/6 mice, 1st trial (single IV bolus, LC-MS, two-compartment model); format: in vivo; details: individual mice, Tun 10 mg/mL 30uL IV
Method: Eighty, 40 male (M) and 40 female (F), C57BL/6 mice were enrolled in the study on Day 0. Body weights, clinical observations, and digital caliper measurements were recorded. Eight (4M/4F) animals per treatment received a single 30uL intravenous bolus dose of the experimental samples (or control DMSO carrier) via the lateral tail vein, as shown in Fig 2A and S1 Table. […] After the first dosing, blood draws for the PK study were at 8-time points (5 min, 15 min, 30 min, 1 h, 2 h, 4 h, 6 h, 24 h). The mice were subdivided into 2 groups of 4 (2M/2F) mice each, with each subgroup having ~50 ul of blood collected via retro-orbital bleed for 4-time points (subgroup 1: 5 min, 30 min, 2h, and 6 h; subgroup 2: 15 min, 1h, 4h, and 24 h). In life, a collection of 50 μL of blood was diluted with 450 μL of ethanol and evaporated to dryness on a Speedvac evaporator under sterile conditions. The dried residues were stored at −80 °C and were shipped on dry ice to NCAUR, Peoria, for analysis. At the end of the study (24 h), the animals were euthanized, and terminal blood samples from all mice (100 µL) were collected via cardiac puncture, diluted with 900 μL of ethanol, and evaporated to dryness on a Speedvac. The dried residues are stored at −80 °C until ready for analysis.
For the comparative PK of tunicamycins in blood, drug concentrations were measured by LC–MS/MS as previously described. Different compartmental models (0, 1, or 2 compartments) and weighting options were assessed for goodness of fit by visual inspection of the observed versus predicted plots, weighted residual versus observed and predicted plots, and comparison of Akaike Information Criterion (AICc) values. A two-compartment IV bolus model was determined to describe the data best (S1 Fig).
Pharmacokinetic parameters were calculated by two-compartmental using a linear regression analysis and residuals method to calculate using Microsoft Excel 2024 using standard equations (Atkinson; 2007; Miyamato et al., 2019). Details about the PK equations to calculate drug concentrations and PK parameters are listed in the S1 Appendix.

[3] = 2nd mouse trial: co-administration with oxacillin, drug in blood, liver, heart and brain; details: 24 h after 30uL IV of Tun 6.7 mg/mL + oxacillin 6.7 mg/mL, individual mice
Method: In the second trial, which was a drug co-localization study, forty (20 male and 20 female) C57BL/6 mice were enrolled on Study Day 0 and were dosed according to the experimental design shown in Fig 2A and S3 Table. Body weights and clinical observations were recorded as before. […] Blood samples were taken (50 μL) 5 min, 15 min, 30 min, 1h, 2h, 4h, 6h, and 24h post-injection. At the end of the study (24 h post dose) the mice were euthanized by CO2 asphyxiation, and liver, brain and heart were collected. The organs were homogenized in ethanol, then filtered to remove solids, and the ethanolic filtrate dried by Speedvac evaporation. The dried residues were stored at −80 °C and shipped on dry ice. Drug concentrations in tissue were measured by LC–MS/MS as previously described.

sheep = test system: sheep; parameters: method as in earlier work; details: cumulative from multiple smaller doses; cited from earlier work

Compound | estimated t1/2 [1] | N-acyl variants in blood (1st trial) ([2]; time 0:05:00 (5 min)) | N-acyl variants in blood (1st trial) ([2]; time 0:15:00 (15 min)) | N-acyl variants in blood (1st trial) ([2]; time 0:30:00 (30 min)) | N-acyl variants in blood (1st trial) ([2]; time 1:00:00 (1 h)) | N-acyl variants in blood (1st trial) ([2]; time 2:00:00 (2 h)) | N-acyl variants in blood (1st trial) ([2]; time 4:00:00 (4 h)) | N-acyl variants in blood (1st trial) ([2]; time 6:00:00 (6 h)) | N-acyl variants in blood (1st trial) ([2]; time 24:00:00 (24 h)) | N-acyl variants in brain (2nd trial) [3] | N-acyl variants in heart (2nd trial) [3] | N-acyl variants in liver (2nd trial) [3] | oral lethal dose (sheep)
Cc1onc(-c2ccccc2)c1C(=O)N[C@@H]1C(=O)N2[C@@H]1SC(C)(C)[C@@H]2C(=O)O [oxacillin] | 7.8 min |  |  |  |  |  |  |  |  |  |  |  | 
CCC(C)CCCCCCCC/C=C/C(=O)N[C@H]1[C@H](O[C@H]2O[C@H](CO)[C@@H](O)[C@H](O)[C@H]2NC(C)=O)O[C@H](C[C@@H](O)[C@H]2O[C@@H](n3ccc(=O)[nH]c3=O)[C@H](O)[C@@H]2O)[C@H](O)[C@@H]1O (some centres unmarked) [C15a] |  | 0.654 µg/mL and 0.6 µg/mL and 0 µg/mL | 0 ug/mL (3×) and 0.45 ug/mL | 0 µg/mL | 0 µg/mL | 0 µg/mL | 0 µg/mL | 0 µg/mL | 0 µg/mL | 0 µg/mL | 0 µg/mL | 0 µg/mL and 0.03337 µg/mL and 0.02831 µg/mL | 
corynetoxins [Cnx] |  |  |  |  |  |  |  |  |  |  |  |  | 3.2 to 5.6 mg/kg
CCCCCCCCCCCCCC/C=C/C(=O)N[C@H]1[C@H](O[C@H]2O[C@H](CO)[C@@H](O)[C@H](O)[C@H]2NC(C)=O)O[C@H](C[C@@H](O)[C@H]2O[C@@H](n3ccc(=O)[nH]c3=O)[C@H](O)[C@@H]2O)[C@H](O)[C@@H]1O [C17s] |  | 0 µg/mL | 0 µg/mL | 0 µg/mL | 0 µg/mL | 0 µg/mL | 0 µg/mL | 0 µg/mL | 0 µg/mL | 0 µg/mL | 0 µg/mL | 0 µg/mL and 0.1695 µg/mL and 0.1754 µg/mL | 
CC(=O)N[C@H]1[C@@H](O[C@@H]2O[C@H](C[C@@H](O)[C@H]3O[C@@H](n4ccc(=O)[nH]c4=O)[C@H](O)[C@@H]3O)[C@H](O)[C@H](O)[C@H]2NC(=O)/C=C/CCCCCCCCCC(C)C)O[C@H](CO)[C@@H](O)[C@@H]1O [C15i] |  | 4.16 µg/mL and 5.09 µg/mL and 2.96 µg/mL | 3.05 µg/mL and 3.14 µg/mL and 1.44 µg/mL and 3.28 µg/mL | 0 ug/mL (2×) and 0.88 ug/mL and 1.74 ug/mL | 0 ug/mL (2×) and 0.77 ug/mL and 1.66 ug/mL | 0 µg/mL | 0 µg/mL | 0 µg/mL | 0 µg/mL | 0 µg/mL | 0 µg/mL | 0 µg/mL and 0.05015 µg/mL and 0.3411 µg/mL and 0.2948 µg/mL | 
